# Assay results taken from patent US20060188898A1, “Markers for roscovitine” (Cyclacel Limited, priority 2003, published 2006).
# Tests used:
# cell cycle progression = settings: cited from earlier work
# CDK7 = CDK7 (Homo sapiens, UniProt P50613); settings: cited from earlier work
# CDK9 = CDK9 (Homo sapiens, UniProt P50750); settings: cited from earlier work
# HT29 colon cancer cells [1] = test: cDNA microarray analysis of mRNA expression in treated HT29 cells; type: cell-based
# Text: Total RNA was extracted from cell pellets using TriZol (Life Technologies) and mRNA was purified using the Qiagen Oligotex system. mRNA from control and treated cells was labelled with either Cy3 or Cy5 (NEN or Amersham) fluorescent dCTPs respectively, creating cDNA probes. cDNA microarray slides are made and used as described in Eisen, MB and Brown PO. (1999) DNA Arrays for Analysis of Gene Expression. Methods in Enzymology 303:179-205.
# The cDNA probes were then hybridised to the cDNA microarray slides overnight and then washed and scanned using an Axon Labs GenePix 4000B scanner. The slides were verified using GenePix software and normalised prior to analysis in GeneSpring.
# A 2 fold cut-off was used to assign significance to a change in mRNA expression. Therefore, any mRNA with a normalised ratio of medians less than 0.5 (FIGS. 1, 3, 5 and 7) or greater than 2 (FIGS. 2, 4, 6 and 8) is deemed significant.
# HT29 colon cancer cells [2] = test: Western blotting of protein expression in treated HT29 cells
# Description: HT29 colon cancer cells were seeded into T175 flasks at 3×10^6 cells per flask and allowed to attach for 48 h. […] A cell pellet was made for protein analysis and RNA analysis.
# To harvest cells, the medium was removed and cells were incubated with 5 ml trypsin for 5 min at 37° C. to detach them from the plastic. The cells were then pelleted, washed in ice cold PBS and resuspended in ice cold lysis buffer containing 50 mM HEPES pH7.4, 250 mM NaCl, 0.1% NP40, 1 mM DTT, 1 mM EDTA, 1 mM NaF, 10 mM β-glycerophosphate, 0.1 mM sodium orthovanadate and 1 complete protease inhibitor cocktail tablet (Roche, East Sussex, UK) per 10 ml of lysis buffer for 30 minutes on ice. Lysates were centrifuged at approx. 18, 000×g for 10 minutes at 4° C. to remove cellular debris. The supernatant was stored at −80° C. prior to use. The protein concentration of lysates was determined using the BCA protein assay (Pierce, Rockford, USA). Proteins were separated by SDS-PAGE using Novex precast tris-glycine gels (Invitrogen, Groningen, The Netherlands) and transferred to Immobilon-P membranes (Millipore, Bedford, USA). Membranes were blocked for 1 hour in TBS™ 50 mM Tris pH7.5, 150 mM NaCl, 0.1% Tween 20 (Sigma, Dorset, UK) and 3% milk. Immunoblotting with primary antibodies diluted in TBS™ was performed at 4° C. overnight, followed by a 1 hour incubation with HRP-conjugated secondary antibodies at room temperature. Membranes were washed with ECL reagents and exposed to Hyperfilm (Amersham Pharmacia Biotech, Buckinghamshire, UK).
# [3] = 50 μM CYC202, time course 4-48 h
# [4] = 50 μM CYC202, time course 4-48 h, Western blot
# Chain of CDK7 (P50613 whole entry, species assumed): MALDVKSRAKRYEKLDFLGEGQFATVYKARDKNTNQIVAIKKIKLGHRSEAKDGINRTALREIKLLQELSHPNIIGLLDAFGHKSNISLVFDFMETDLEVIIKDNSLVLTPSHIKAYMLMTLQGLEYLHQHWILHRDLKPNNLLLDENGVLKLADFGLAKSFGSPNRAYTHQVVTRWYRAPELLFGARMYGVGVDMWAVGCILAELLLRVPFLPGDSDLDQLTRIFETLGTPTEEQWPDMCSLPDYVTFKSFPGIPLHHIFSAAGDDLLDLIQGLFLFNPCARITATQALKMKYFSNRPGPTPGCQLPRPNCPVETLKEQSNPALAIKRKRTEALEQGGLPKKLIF
# Chain of CDK7 (P51946 whole entry partner, species assumed): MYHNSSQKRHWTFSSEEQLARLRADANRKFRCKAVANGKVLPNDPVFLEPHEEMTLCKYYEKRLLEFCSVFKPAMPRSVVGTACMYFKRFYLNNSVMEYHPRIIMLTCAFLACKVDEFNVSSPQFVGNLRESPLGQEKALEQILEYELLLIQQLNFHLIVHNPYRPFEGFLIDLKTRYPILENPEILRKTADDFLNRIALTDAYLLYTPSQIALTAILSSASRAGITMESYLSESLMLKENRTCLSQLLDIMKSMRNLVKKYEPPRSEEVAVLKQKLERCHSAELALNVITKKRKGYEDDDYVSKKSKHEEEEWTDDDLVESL
# Chain of CDK9 (P50750 whole entry, species assumed): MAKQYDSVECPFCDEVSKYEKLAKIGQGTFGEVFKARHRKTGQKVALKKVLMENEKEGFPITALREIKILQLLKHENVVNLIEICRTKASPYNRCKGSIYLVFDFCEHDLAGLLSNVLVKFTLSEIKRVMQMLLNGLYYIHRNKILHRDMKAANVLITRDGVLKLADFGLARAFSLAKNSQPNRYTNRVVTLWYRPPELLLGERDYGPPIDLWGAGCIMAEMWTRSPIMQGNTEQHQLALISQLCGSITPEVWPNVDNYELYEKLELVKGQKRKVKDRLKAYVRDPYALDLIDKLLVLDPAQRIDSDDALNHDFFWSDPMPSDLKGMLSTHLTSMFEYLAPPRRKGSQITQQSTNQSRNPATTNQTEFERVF
# Chain of CDK9 (O60563 whole entry partner, species assumed): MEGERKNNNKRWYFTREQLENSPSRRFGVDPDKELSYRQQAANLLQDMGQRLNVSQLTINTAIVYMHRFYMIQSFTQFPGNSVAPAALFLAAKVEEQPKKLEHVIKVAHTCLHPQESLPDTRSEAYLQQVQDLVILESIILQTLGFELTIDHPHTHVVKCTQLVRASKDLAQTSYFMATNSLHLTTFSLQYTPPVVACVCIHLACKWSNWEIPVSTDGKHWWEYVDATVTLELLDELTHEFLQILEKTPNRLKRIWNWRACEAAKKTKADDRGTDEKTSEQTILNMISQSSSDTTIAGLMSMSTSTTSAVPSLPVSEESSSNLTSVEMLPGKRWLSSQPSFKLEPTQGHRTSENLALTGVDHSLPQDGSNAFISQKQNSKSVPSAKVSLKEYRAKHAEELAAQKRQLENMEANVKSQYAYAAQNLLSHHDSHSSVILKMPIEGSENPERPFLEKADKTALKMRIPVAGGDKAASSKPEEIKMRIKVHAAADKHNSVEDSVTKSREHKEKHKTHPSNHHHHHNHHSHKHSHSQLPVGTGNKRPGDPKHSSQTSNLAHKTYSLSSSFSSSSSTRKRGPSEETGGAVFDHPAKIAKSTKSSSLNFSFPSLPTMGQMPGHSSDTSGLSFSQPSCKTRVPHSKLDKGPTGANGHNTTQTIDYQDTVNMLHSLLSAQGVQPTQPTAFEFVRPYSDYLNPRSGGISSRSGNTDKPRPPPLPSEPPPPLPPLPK
smiles,measurement,setting,value
"CC[C@H](CO)Nc1nc(NCc2ccccc2)c2ncn(C(C)C)c2n1 [CYC202, 2-(R)-(1-ethyl-2-hydroxyethylamino)-6-benzylamino-9-isopropylpurine]",effect on cell cycle progression,cell cycle progression,block cell cycle progression in late G1/early S and in M-phase
same,inhibition of CDK7,CDK7,inhibit
same,inhibition of CDK9,CDK9,inhibit
same,c-JUN mRNA expression,"HT29 colon cancer cells [1]; 50 μM CYC202, 4-48 h",induced to significant levels from 4 h and is maintained at that level for the duration of the experiment
same,EGR-1 mRNA expression,"HT29 colon cancer cells [1]; 50 μM CYC202, 4-48 h, two fold cut off",induced from as early as 4 h and is maintained above the two fold cut off for the duration of the experiment
same,aurora 1 mRNA expression,HT29 colon cancer cells [1]; [3],markedly inhibited
same,cyclin B2 mRNA expression,HT29 colon cancer cells [1]; [3],markedly inhibited
same,polo-like kinase 1 mRNA expression,HT29 colon cancer cells [1]; [3],markedly inhibited
same,c-JUN protein expression,"HT29 colon cancer cells [2]; 50 μM CYC202, 4 h and 12 h, Western blot, phosphorylated, active form",induced at 4 h and 12 h
same,EGR-1 protein expression,"HT29 colon cancer cells [2]; 50 μM CYC202, Western blot",transiently induced at 12 h
same,c-JUN protein expression,"HT29 colon cancer cells [2]; 50 μM CYC202, after 24 h, Western blot",lost after 24 h
same,aurora 1 protein expression,HT29 colon cancer cells [2]; [4],markedly inhibited
same,cyclin B2 protein expression,HT29 colon cancer cells [2]; [4],markedly inhibited
same,polo-like kinase 1 protein expression,HT29 colon cancer cells [2]; [4],markedly inhibited
